{"source": "patent US11667646B2", "about": "“Solid state forms of rucaparib and of rucaparib salts” (ASSIA CHEMICAL INDUSTRIES LTD., priority 2017, dated 2023)", "key": {"[1]": {"test": "API mass increase of the salt vs. the free base"}, "Compressibility": {"test": "Compressibility", "type": "physicochemical"}, "[2]": {"test": "Kinetic solubility at various pH ranges", "type": "physicochemical"}, "[3]": {"test": "Solid state stability at controlled relative humidity, room temperature, open Petri dish", "type": "physicochemical"}, "Hygroscopicity": {"test": "Hygroscopicity", "type": "physicochemical"}, "[4]": {"conditions": "20-100% relative humidity (RH) at room temperature (RT) in open Petri dish"}}, "note": "Counter-ions that a name gives are not always drawn."}
{"compound": "CNCc1ccc(-c2[nH]c3cc(F)cc4c3c2CCNC4=O)cc1.Cc1ccc(S(=O)(=O)O)cc1", "note": "[8-fluoro-2-{4-[(methylamino)methyl]phenyl}-1,3,4,5-tetrahydro-6H-azepino[5,4,3-cd]indol-6-oneTosylate]", "values": [{"measurement": "API mass increase of the salt vs. the free base", "setting": "[1]", "result": 53, "unit": "%"}, {"measurement": "compressibility properties", "setting": "Compressibility", "result": "good"}, {"measurement": "kinetic solubility", "setting": "[2]", "result": "improved"}, {"measurement": "period of stability", "setting": "[3]; [4]", "result": "at least 1 month"}, {"measurement": "hygroscopicity", "setting": "Hygroscopicity", "result": "non-hygroscopic"}]}
{"compound": "CNCc1ccc(-c2[nH]c3cc(F)cc4c3c2CCNC4=O)cc1", "note": "[Crystalline Form C of Rucaparib base, 8-fluoro-2-{4-[(methylamino)methyl]phenyl}-1,3,4,5-tetrahydro-6H-azepino[5,4,3-cd]indol-6-one]", "values": [{"measurement": "API mass increase of the salt vs. the free base", "setting": "[1]", "result": "no API mass increase"}, {"measurement": "kinetic solubility", "setting": "[2]", "result": "improved"}, {"measurement": "period of stability", "setting": "[3]; [4]", "result": "at least 1 month"}, {"measurement": "hygroscopicity", "setting": "Hygroscopicity", "result": "non-hygroscopic"}]}
{"compound": "CNCc1ccc(-c2[nH]c3cc(F)cc4c3c2CCNC4=O)cc1", "note": "[Crystalline Form I of Rucaparib base, 8-fluoro-2-{4-[(methylamino)methyl]phenyl}-1,3,4,5-tetrahydro-6H-azepino[5,4,3-cd]indol-6-one]", "values": [{"measurement": "API mass increase of the salt vs. the free base", "setting": "[1]", "result": "no API mass increase"}, {"measurement": "kinetic solubility", "setting": "[2]", "result": "improved"}, {"measurement": "period of stability", "setting": "[3]; [4]", "result": "at least 1 month"}, {"measurement": "hygroscopicity", "setting": "Hygroscopicity", "result": "non-hygroscopic"}]}
{"compound": "CNCc1ccc(-c2[nH]c3cc(F)cc4c3c2CCNC4=O)cc1", "note": "[Crystalline Form II of Rucaparib base, 8-fluoro-2-{4-[(methylamino)methyl]phenyl}-1,3,4,5-tetrahydro-6H-azepino[5,4,3-cd]indol-6-one]", "values": [{"measurement": "API mass increase of the salt vs. the free base", "setting": "[1]", "result": "no API mass increase"}, {"measurement": "period of stability", "setting": "[3]; 20-40% relative humidity (RH) at room temperature (RT) in open Petri dish", "result": "at least 1 month"}]}
{"compound": "CNCc1ccc(-c2[nH]c3cc(F)cc4c3c2CCNC4=O)cc1", "note": "[Crystalline Form IV of Rucaparib Hemi-Edisylate] [8-fluoro-2-{4-[(methylamino)methyl]phenyl}-1,3,4,5-tetrahydro-6H-azepino[5,4,3-cd]indol-6-one Hemi-Edisylate]", "values": [{"measurement": "API mass increase of the salt vs. the free base", "setting": "[1]", "result": 9, "unit": "%"}, {"measurement": "compressibility properties", "setting": "Compressibility", "result": "good"}, {"measurement": "kinetic solubility", "setting": "[2]", "result": "improved"}, {"measurement": "period of stability", "setting": "[3]; [4]", "result": "at least 1 month"}, {"measurement": "hygroscopicity", "setting": "Hygroscopicity", "result": "non-hygroscopic"}]}
{"compound": "CNCc1ccc(-c2[nH]c3cc(F)cc4c3c2CCNC4=O)cc1", "note": "[Rucaparib camsylate, 8-fluoro-2-{4-[(methylamino)methyl]phenyl}-1,3,4,5-tetrahydro-6H-azepino[5,4,3-cd]indol-6-one ((1S,4R)-7,7 dimethyl-2-oxobicyclo[2.2.1]hept-1-yl) methane-sulfonic acid salt, reference compound]", "values": [{"measurement": "API mass increase of the salt vs. the free base", "setting": "[1]", "result": 72, "unit": "%"}]}
